Values of other authors as cited in patent US10028917B2, “Beclomethasone dipropionate compositions in modified-release gastro-resistant microspheres and process for obtaining them” (SOFAR SPA, priority 2010, dated 2018).

Conditions: relative to hydrocortisone

## CCC(=O)OCC(=O)[C@@]1(OC(=O)CC)[C@@H](C)C[C@H]2[C@@H]3CCC4=CC(=O)C=C[C@]4(C)[C@@]3(Cl)[C@@H](O)C[C@@]21C [BDP, Beclomethasone dipropionate]
  times more powerful than hydrocortisone: 500 times
